Assay results as given in US9492428B2, “Compounds, compositions, pharmaceutical compositions, and methods of use” (University of Louisville Research Foundation, Inc., priority 2011, dated 2016).

Assays:
Format in all cases: cell-based, human
DU145 cells [1] = experiment: Immunofluorescence (confocal) microscopy, α-tubulin and DAPI; conditions: 10 μM
Description: FIG. 14. Fluorescent microscopy of DU145 prostate cancer cells. DU145 cells were plated in culture dishes designed for confocal microscopy and allowed to adhere for 18 hours at 37° C. They were then for incubated for a further 24 and 48 h with 10 μM compound I-1 or 48 h with vehicle (DMSO). After that, cells were washed with cold PBS, fixed with 4% paraformaldehyde, and permeabilized with 0.1% Triton 100X. Cells were stained with 4′6-diamidino-2-phenylindole (DAPI), which binds to DNA, and with anti-α-tubulin antibody labeled with Alexa Fluor 488 to show the location of microtubules. Scale bars indicate a length of […], arrows indicate cells with evidence of aberrant mitosis, and asterisks indicate cells with apoptotic morphology.
Immunofluorescence microscopy. Cells (2.5×10^4) in fresh complete culture medium were plated on 18 mm diameter glass cover slips for 18 h. The medium was replaced with complete medium containing 10 μM compound I-1 or an equivalent volume of vehicle (DMSO) and incubated for 24 or 48 h. After incubation, cells were washed 3 times with ice-cold PBS, fixed in 4% paraformaldehyde in PBS for 30 min at room temperature, and washed three times with PBS. Cells were permeabilized for 1 min in PBS containing 0.1% Triton X-100, and washed three times with PBS. […]

DU145 cells [2] = experiment: Flow cytometric analysis of cell cycle (propidium iodide) in DU145
Description: FIG. 9. Effect of compound I-1 at 5 μM on cell cycle and apoptosis. Cells were then harvested by trypsinization. (A) For flow cytometric analysis of cell cycle parameters, cells were fixed, and stained with propidium iodide. Each histogram indicates the percent of cells in G1, S, and G2/M phases of the cell cycle. Data were gated to exclude apoptotic cells for these calculations. (B) For apoptosis detection, cells were incubated with FITC-conjugated Annexin V and propidium iodide. Flow cytometric analysis was performed and the histogram for each sample was split into four quadrants to indicate: viable cells (lower left quadrant), apoptotic cells (lower right quadrant), necrotic cells (upper left quadrant), and necrotic/late apoptotic cells (upper right quadrant).
FIG. 10. Flow cytometric analysis of cell cycle parameters. DU145 prostate cancer cells were incubated for 24 h (A) or for 48 h (B) in the presence of 10 μM compound I-1 or vehicle (DMSO), or without additive (untreated). Cells were then harvested by trypsinization, fixed, and stained with propidium iodide for analysis by flow cytometry. Each histogram indicates the percent of cells in G1, S, and G2/M phases of the cell cycle. Data were gated to exclude apoptotic cells for these calculations. A small population of aneuploid cells with >4n DNA content, which became apparent in the cells treated with compound I-1, is also indicated (percentage underlined).
Flow cytometric assays of cell cycle and cell death. Cells in fresh complete medium were plated (2×10^5 per well) into six-well plates for 18 h. After complete adhesion, cells were treated as indicated in the figures and harvested by trypsinization. For cell cycle distribution, cells were fixed, and stained with propidium iodide using the Cycle Test Plus kit (Becton Dickinson). For cell death detection, cells were stained with Annexin-V-FITC and propidium iodide using the Apoptosis Detection Kit (BD Biosciences), according to the manufacturer's instructions. Cells were then analyzed by flow cytometry using a FACScalibur cytometer (BD Biosciences, Mountain View, Calif.) and FlowJo program (Tree Star, Inc., Ashland, Oreg.).

DU145 cells [3] = experiment: Trypan blue exclusion assay (cell death); conditions: 10 μM, 72 h
Description: FIG. 12. Trypan blue exclusion assay to determine cell death. DU145 prostate cancer cells were left untreated or treated with 10 μM compound I-1 or with vehicle (DMSO) for 72 h. After treatment, all cells (both adherent and floating) were harvested, stained with trypan blue, and counted immediately to determine the percentage of non-viable cells (stained blue). Columns represent the mean of three independent experiments, bars represent standard error, and numbers above each column represent the percentage of blue cells in the sample.
Compound I-1 promotes cell death by apoptosis. Because prolonged cell cycle arrest can cause induction of cell death, we next investigated the viability of prostate cancer cells treated with compound I-1. To begin, we used the trypan blue exclusion assay, which is based on the principle that live cells will exclude membrane-impermeable dyes such as trypan blue, whereas trypan blue will get inside the dead cells and stain them. […] To determine whether apoptosis (programmed cell death) is the cause of cell death induced by compound I-1, we examined the cells for biochemical and morphological markers of apoptosis. […]

PC-3 cells = experiment: Clonogenic assay in PC-3
Description: FIG. 7. Clonogenic assays in prostate cancer cells treated with compound I-1. Prostate cancer cells, DU145 (A) or PC3 (B), were plated at very low density in 6-well plates and incubated 18 h at 37° C. Cells were treated by addition of various concentrations of compound I-1 or with an equivalent volume of vehicle (DMSO), or were left untreated. After 10 days of treatment, cells were washed with cold PBS, fixed with paraformaldehyde, and stained with crystal violet solution.
Clonogenic Assay. Cells in fresh complete medium were plated at very low density (3×10^2 per well) into six-well plates for 18 h. After complete adhesion, cells were treated with compound I-1 by adding directly to the medium to give the concentration indicated in the figures. Cells were allowed to grow until visible colonies formed (10 days). Cell colonies were fixed with 4% paraformaldehyde in PBS (phosphate-buffered saline), stained with 0.25% crystal violet in 25% methanol, washed and air-dried.

C[C@@H]1CC[C@H]2C3C(O[C@]4([C@]5(O)CC6(C)C(=O)OC5C[C@@]6(C)O)CC[C@@]31O4)[C@H]1O[C@]13CC=CC(=O)[C@]23C (stereo partly drawn) [I-1]
cells with evidence of aberrant mitosis (DU145 cells [1]; 24 h): increased number
cells with evidence of abnormal mitosis or apoptosis (DU145 cells [1]; 48 h): almost all of the cells
cell cycle parameters (DU145 cells [2]; 5 μM): not perturbed
population of aneuploid cells that contain more than 4n DNA (DU145 cells [2]; 10 μM): additional peak to the right of the G2/M peak
fraction of cells in phase (DU145 cells [2]; 10 μM, 24 h): 8%
proportion of cells in G2/M phases (DU145 cells [2]; 10 μM, 24 h): 49%
proportion of cells in S phase (DU145 cells [2]; 10 μM, 24 h): 37%
fraction of cell in G2/M (DU145 cells [2]; 10 μM, 48 h): 66%
percentage of cells in S phase (DU145 cells [2]; 10 μM, 48 h): decreased
dead cells (trypan blue) (DU145 cells [3]): ~90%
effect on colony formation (PC-3 cells; 2.5 μM, 10 days): Inhibitory effects
concentration that blocked the capacity of single cancer cells to generate colonies (PC-3 cells; 10 days of treatment): ≥ 5 µM
